One data set concerns DU145. The experiment in a line: MTT proliferation assay, DU145. Particulars: Homo sapiens, DU-145; Prostate, DU145, 120 h of exposure. The class given is cell-based. How it is done:
(§1) Proliferation Assays. IC50 values were determined for each cell line. Cells were seeded in 96-well plates at an appropriate cell density as determined from growth kinetics analysis and cultured for 5 days in the absence and presence of the test compounds. Cell proliferation was assessed after the addition of 20 μl of 3-4,5 dimethylthiazol-2,5-diphenyl tetrazolium bromide (MTT, 5 mg/ml in PBS, Sigma) for 5 hrs at 37° C. according to manufacturer's instructions. IC50 values were calculated from semi-log plots of % of control proliferation on the y-axis against log dose on the x-axis.
(§2) Anti-proliferative Activity of Isoflavonoid Derivatives. IC50 values were determined for each cell line after 120 h of exposure.

Another data set has as its system A2780. The data set can be described thus: MTT proliferation assay, A2780. The class given is cell-based. The procedure, abridged: (§3)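 IC50 values come from semi-log plots of percent-of-control proliferation against log dose. Proliferation was measured by MTT conversion over 5 hrs at 37° C, following 5 days of culture in the presence or absence of compound.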
(Tetrazolium assays rely on reduction of a dye to a coloured formazan, in cell work by metabolically active cells.)

A further data set concerns R-182. The experiment in a line: MTT proliferation assay, R-182. The conditions noted are these: Ovarian, R-182, 120 h of exposure. Format: cell-based.
From the text: Tissue culture. The multidrug resistant primary epithelial ovarian cancer cell line R-182 TARA was a gift from Dr. Gil Mor (Yale University, New Haven, CT, USA). This cell line was derived by explant from ovarian tumors and cultured as previously described. All other cell lines were purchased from American Type Culture Collection (ATCC, Manassas, VA, USA) with the exception of MKN1, HuH-7, JHH-1, which were purchased from the Japanese Collection of Research Bioresources (JCRB, Osaka, Japan), and OE19 which was purchased from the European Collection of Cell Cultures (ECACC, Salisbury, UK).
as §1, §2

The next data set deals with A549. The data set can be described thus: MTT proliferation assay, A549. Format: cell-based. The conditions noted are these: Homo sapiens; NSCLC, A549, 120 h of exposure. The protocol: as §1, §2
A further data set relates to A2058. The experiment in a line: MTT proliferation assay, A2058. Format: cell-based. The gist of the method: as §3
The next data set deals with 4405. The experiment in a line: MTT proliferation assay, 4405. The class given is cell-based. Particulars: Melanoma, 4405, 120 h of exposure. How it is done: as §1, §2
In data set [1] the test system is A2780 ovarian cancer cells. The data set can be described thus: Combination with carboplatin, proliferation of A2780 cells. Format: cell-based. The protocol: In vitro toxicity in normal and cancer cells. Cells were seeded in 96-well plates at an appropriate cell density as determined from growth kinetics analysis. Depending on the plating efficiency and lag phase of individual cell lines, cells were allowed to plate down prior to drug exposure. Intra-experimental single agent controls were included to ensure IC50 values obtained for each cell line matched previous IC50 determinations. Four analogue concentrations were employed in each analysis. Analogue concentrations used in each assay were chosen based on IC50 values, which formed the top concentration of analogue used. Subsequent concentrations were chosen based on simple ½ or 1/10 dilutions of the top analogue concentration employed (i.e. 2, 1, 0.5, 0.25 μM). Nine 1/10 serial dilutions of chemotherapeutic were employed with the top chemotherapeutic concentration being 50 μM.
For combined analysis, analogue concentrations were held constant through 1/10 serial dilutions of chemotherapeutic in growth medium (top chemotherapeutic concentration employed was 50 μM). Combined cultures were cultured for 5 days.
The sequence of administration effect of each agent on chemotherapeutic IC50 values was assessed by exposing plated cells to a single agent in sequence for 24 hr. To assess the isoflavonoid derivative→chemotherapeutic sequence, plated cells were first exposed to the appropriate analogue concentrations and incubated at 37° C. for 24 hr. Cells were washed with growth medium and then exposed to the appropriate chemotherapeutic concentrations and incubated for 24 hr. Cells were then washed and incubated for a further 3 days. To assess the chemotherapeutic→isoflavonoid derivative sequence, the procedure was reversed.
Cell proliferation was assessed after the addition of 20 μl of 3-4,5 dimethylthiazol-2,5-diphenyl tetrazolium bromide (MTT, 2.5 mg/ml in PBS, Sigma) for 3-4 hrs at 37° C. according to manufacturer's instructions. IC50 values were calculated from semi-log plots of % of control proliferation on the y-axis against log dose on the x-axis.
3-D model analysis of the cytotoxic interaction between drug A and drug B enables the representation of predicted inhibitory effect of two drugs in combination in 3 dimensions to reveal actual regions of synergy or antagonism. The 3D synergy plots are based on a theory of “Theoretical Additivity” (TA or […]) as outlined by Kanzawa et al. Theoretical Additivity was calculated from the cytotoxicities of drug A and drug B as monotherapies using the following formula which assumes the drugs are mutually exclusive inhibitors: […]
The TA is calculated for each combination of drug concentrations and subtracted from the observed experimental effect for each combination to give a measurement of synergistic or enhanced action.
Combination index (CI) analysis, which employs the median-effect principle correlating drug dose to cytotoxicity, was also employed to assess synergy. The median-effect equation is utilized to calculate the dose of a drug that inhibits “x” percent of cells (Chou and Talalay, 1984). D=Dm[fa/(1−fa)]^1/m
In vitro Assessment of Combination of Optically Active Compound 31 and Carboplatin. Combination studies employed both 24 hr concurrent exposure, and 24 hr sequential exposure (racemic compound 32→Carboplatin) regimens. In both studies, four analogue concentrations (0.25, 0.5, 1 and 5 μM) were held constant against titrated carboplatin. When 1 and 5 μM of compound 32 was assessed in combination with the lowest concentration of carboplatin employed in this study (0.4 μM), no IC50 for carboplatin was achieved due the high levels of cell kill observed (30-40% of control).

A short description of data set [2]: Solubility in Captisol solution. Particulars: 20% Captisol solution, aqueous with cosolvent or surfactant or cyclodextrin, 25° C., read-out: solubility limit. The class given is physicochemical. The protocol:
(20% Captisol®). Formulation is carried out under aseptic conditions. Sterility is achieved by terminal filtration through a 0.22 micron filter.

In data set [3] the test system is A2780 ovarian cancer cells. The data set can be described thus: Combination with carboplatin, proliferation of A2780 cells. The conditions noted are these: 0.5, 1 and 5 μM of compound plus 0.4 μM carboplatin. Format: cell-based.

Converted amounts (≈) assume the structure as drawn.

Consider `Oc1ccc([C@H]2c3ccc(O)cc3OC[C@H]2c2ccc(O)cc2)cc1` [Compound 31, d-cis-3-(4-hydroxyphenyl)-4-(4-hydroxyphenyl)chroman-7-ol], for which the IC50 (in general, the concentration needed to halve the response being measured) is 150 to 500 nM in the data set on DU145; 150 to 500 nM with A2780 (Homo sapiens, A2780, 120 h, Ovarian, A2780, 120 h of exposure); 150 to 500 nM in the data set with A2780 (Table 2, Ovarian, A2780, 120 hrs of exposure); at most 150 nM in the data set on R-182; 510 to 1500 nM in the data set with A549; at most 150 nM in the data set on A2058 (Homo sapiens, A2058, 120 h, Melanoma, A2058, 120 h of exposure). Also, the IC50 is at most 150 nM in the data set on A2058 (Table 2, Melanoma, A2058, 120 hrs of exposure) and 150 to 500 nM in the data set on 4405. The “anti-proliferative activity against various cancer cells compared with racemic (compound 32) and l-form (compound 33)” value in the data set on A2780 (120 hrs of exposure, various cancer cells (Table 2)) is on record as “superior anti-proliferative activity”. For the same compound, in data set [1] (0.25 μM of compound, A2780, depending on exposure regimen (24 hr concurrent or sequential)), the “enhancement of the anti-cancer effect of carboplatin” value is recorded as 7-11 fold. The “potency of the inhibition of proliferation compared with compound 34” value in data set [1] (0.5 μM of compound in combination with carboplatin, A2780) was “superior”. Besides, the “compound concentration giving maximal activity enhancement with carboplatin” value in data set [1] (3D method of Kanzawa, 12.5 μM carboplatin, A2780) is 0.25 µM. The “activity enhancement in combination with carboplatin” value in data set [1] (A2780 cell line, 31 compared with compound 32) is recorded as “superior in its ability to augment carboplatin toxicity”. Besides, the “retardation of A2780 cell proliferation compared with compound 34” value in data set [1] (sequential exposure (24 h), 0.25 μM of compound followed by carboplatin) was “superior retardation of A2780 cell proliferation”. The solubility (as a rule, the concentration that dissolves in the medium under given conditions) in [2] turned out to be 27.9 mg/mL (≈ 83.4 mM). In [3], the “cell kill level observed (no IC50 for carboplatin achieved)” value is listed as 25-40 % of control.

The values above are taken from patent publication US12329739B2, “Isoflavonoid compounds and methods for the treatment of cancer” (Aardvark Therapeutics, Inc., priority 2010, dated 2025).
